Measured values from the NIST ThermoML archive (doi:10.1021/acs.jced.7b00694).

Assay: xn = mol fraction of the nth substance listed
Settings: Gas, Buoyancy - hydrostatic balance with magnetic suspension - one sinker

[HH] [hydrogen] + N#N
Settings	mass density [kg/m3]
240.05 K, 998 kPa, x2 = 0.95	13.46
240.05 K, 1997 kPa, x2 = 0.95	27.15
240.05 K, 2999 kPa, x2 = 0.95	41.055
240.05 K, 3998 kPa, x2 = 0.95	55.055
240.05 K, 4998 kPa, x2 = 0.95	69.19
240.05 K, 5999 kPa, x2 = 0.95	83.412
240.05 K, 7000 kPa, x2 = 0.95	97.671
240.05 K, 8000 kPa, x2 = 0.95	111.894
240.05 K, 9001 kPa, x2 = 0.95	126.079
240.05 K, 10004 kPa, x2 = 0.95	140.187
240.05 K, 11004 kPa, x2 = 0.95	154.093
240.05 K, 12006 kPa, x2 = 0.95	167.817
240.05 K, 13008 kPa, x2 = 0.95	181.315
240.05 K, 14010 kPa, x2 = 0.95	194.555
240.05 K, 15014 kPa, x2 = 0.95	207.511
240.05 K, 16011 kPa, x2 = 0.95	220.048
240.05 K, 17007 kPa, x2 = 0.95	232.236
240.05 K, 18019 kPa, x2 = 0.95	244.268
240.05 K, 19018 kPa, x2 = 0.95	255.783
240.05 K, 19977 kPa, x2 = 0.95	266.493
240.07 K, 998 kPa, x2 = 0.9	12.789
240.07 K, 999 kPa, x2 = 0.5001	7.515
240.07 K, 1998 kPa, x2 = 0.9	25.761
240.07 K, 2000 kPa, x2 = 0.5001	14.997
240.07 K, 3000 kPa, x2 = 0.9	38.902
240.07 K, 3998 kPa, x2 = 0.9	52.1
240.07 K, 3999 kPa, x2 = 0.5001	29.835
240.07 K, 4998 kPa, x2 = 0.5001	37.187
240.07 K, 4998 kPa, x2 = 0.9	65.397
240.07 K, 5999 kPa, x2 = 0.5001	44.484
240.07 K, 5999 kPa, x2 = 0.9	78.743
240.07 K, 6999 kPa, x2 = 0.5001	51.715
240.07 K, 6999 kPa, x2 = 0.9	92.089
240.07 K, 8000 kPa, x2 = 0.9	105.416
240.07 K, 9001 kPa, x2 = 0.9	118.665
240.07 K, 10003 kPa, x2 = 0.9	131.826
240.07 K, 11003 kPa, x2 = 0.9	144.806
240.07 K, 12006 kPa, x2 = 0.9	157.633
240.07 K, 13007 kPa, x2 = 0.9	170.235
240.07 K, 14004 kPa, x2 = 0.9	182.528
240.07 K, 15010 kPa, x2 = 0.9	194.68
240.07 K, 16012 kPa, x2 = 0.9	206.497
240.07 K, 17016 kPa, x2 = 0.9	218.039
240.07 K, 18009 kPa, x2 = 0.9	229.14
240.07 K, 19021 kPa, x2 = 0.9	240.134
240.07 K, 19857 kPa, x2 = 0.9	248.956
240.08 K, 2989 kPa, x2 = 0.5001	22.354
240.08 K, 7999 kPa, x2 = 0.5001	58.867
240.08 K, 8999 kPa, x2 = 0.5001	65.94
240.08 K, 10002 kPa, x2 = 0.5001	72.937
240.08 K, 11003 kPa, x2 = 0.5001	79.831
240.08 K, 17004 kPa, x2 = 0.5001	118.935
240.08 K, 18010 kPa, x2 = 0.5001	125.09
240.08 K, 19066 kPa, x2 = 0.5001	131.423
240.09 K, 12008 kPa, x2 = 0.5001	86.648
240.09 K, 13002 kPa, x2 = 0.5001	93.298
240.09 K, 14003 kPa, x2 = 0.5001	99.881
240.09 K, 15003 kPa, x2 = 0.5001	106.346
240.09 K, 16007 kPa, x2 = 0.5001	112.717
250.02 K, 998 kPa, x2 = 0.95	12.909
250.02 K, 1998 kPa, x2 = 0.95	25.981
250.02 K, 2999 kPa, x2 = 0.95	39.211
250.02 K, 3999 kPa, x2 = 0.95	52.525
250.02 K, 4999 kPa, x2 = 0.95	65.908
250.02 K, 5999 kPa, x2 = 0.95	79.318
250.02 K, 6999 kPa, x2 = 0.95	92.739
250.02 K, 8001 kPa, x2 = 0.95	106.147
250.02 K, 9002 kPa, x2 = 0.95	119.485
250.02 K, 9998 kPa, x2 = 0.95	132.641
250.02 K, 11003 kPa, x2 = 0.95	145.769
250.02 K, 12002 kPa, x2 = 0.95	158.648
250.02 K, 13002 kPa, x2 = 0.95	171.33
250.02 K, 14006 kPa, x2 = 0.95	183.836
250.02 K, 15009 kPa, x2 = 0.95	196.059
250.02 K, 16008 kPa, x2 = 0.95	207.967
250.02 K, 17012 kPa, x2 = 0.95	219.644
250.02 K, 18015 kPa, x2 = 0.95	231.002
250.02 K, 19020 kPa, x2 = 0.95	242.075
250.02 K, 19863 kPa, x2 = 0.95	251.12
250.03 K, 999 kPa, x2 = 0.5001	7.213
250.03 K, 1999 kPa, x2 = 0.5001	14.386
250.03 K, 2988 kPa, x2 = 0.5001	21.436
250.03 K, 3998 kPa, x2 = 0.5001	28.596
250.03 K, 4998 kPa, x2 = 0.5001	35.626
250.04 K, 998 kPa, x2 = 0.9	12.26
250.04 K, 1998 kPa, x2 = 0.9	24.659
250.04 K, 2987 kPa, x2 = 0.9	37.024
250.04 K, 3998 kPa, x2 = 0.9	49.722
250.04 K, 4998 kPa, x2 = 0.9	62.325
250.04 K, 5999 kPa, x2 = 0.5001	42.6
250.04 K, 5999 kPa, x2 = 0.9	74.953
250.04 K, 6999 kPa, x2 = 0.5001	49.504
250.04 K, 6999 kPa, x2 = 0.9	87.557
250.04 K, 7999 kPa, x2 = 0.5001	56.336
250.04 K, 8000 kPa, x2 = 0.9	100.114
250.04 K, 8999 kPa, x2 = 0.5001	63.085
250.04 K, 9001 kPa, x2 = 0.9	112.6
250.04 K, 9995 kPa, x2 = 0.9	124.895
250.04 K, 9999 kPa, x2 = 0.5001	69.753
